Measurements as given in ChEMBL document CHEMBL1142886, “Substrate specificity analysis and inhibitor design of homoisocitrate dehydrogenase” (Bioorg Med Chem, 2007).

Legend:
[1] = Inhibition of Deinococcus radiodurans homoisocitrate dehydrogenase
[2] = target: Homoisocitrate dehydrogenase, mitochondrial (Saccharomyces cerevisiae S288c, UniProt P40495); experiment: Inhibition of Saccharomyces cerevisiae homoisocitrate dehydrogenase expressed in Escherichia coli Rosetta cells above 10 mM
Sequence of Homoisocitrate dehydrogenase, mitochondrial (P40495 whole entry): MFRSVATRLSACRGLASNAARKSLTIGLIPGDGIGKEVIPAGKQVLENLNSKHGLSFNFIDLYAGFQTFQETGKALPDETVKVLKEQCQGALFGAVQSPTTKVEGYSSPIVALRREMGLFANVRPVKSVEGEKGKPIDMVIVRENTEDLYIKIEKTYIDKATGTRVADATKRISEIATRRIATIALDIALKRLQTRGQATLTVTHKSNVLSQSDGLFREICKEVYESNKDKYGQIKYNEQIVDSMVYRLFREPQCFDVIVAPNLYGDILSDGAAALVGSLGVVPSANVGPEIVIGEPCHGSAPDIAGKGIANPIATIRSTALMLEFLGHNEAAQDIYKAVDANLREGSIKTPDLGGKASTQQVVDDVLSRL

Compound | Ki [1] [mM] | Ki [2] [µM]
O=C(O)/C(=C/CCO)[C@@H](O)C(=O)O | 5.2 | 1400
O=C(O)CC/C=C(\C(=O)O)[C@@H](O)C(=O)O | 0.26 | 72

More lines, now with the values ahead:

Ki [1] [mM] | Ki [2] [µM] | Compound
0.088 |  | C=C[C@H](C(=O)O)[C@@H](O)C(=O)O
15.3 | 510 | O=C(O)/C(=C\CCO)[C@@H](O)C(=O)O
3.1 | 790 | O=C(O)CC/C=C(/C(=O)O)[C@@H](O)C(=O)O
